Assay results published in PubChem BioAssay (NCI).
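Protocol summary: plate cells (96-well), add compound at 5 concentrations, incubate 48 h, interpolate endpoints linearly. At the GI50, growth is halved. Definition used: TGI = concentration required for complete inhibition of growth.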

Tests used:
Assay in all cases: NCI anticancer screen, dose series, 48 h
RXF 393 renal = tested on: RXF 393 renal
U251 CNS = tested on: U251 CNS
SK-MEL-5 melanoma = tested on: SK-MEL-5 melanoma
UACC-257 melanoma = tested on: UACC-257 melanoma
SF-268 CNS = tested on: SF-268 CNS
HCT-116 colon = tested on: HCT-116 colon
SR leukemia = tested on: SR leukemia
HT29 colon = tested on: HT29 colon
NCI-H226 lung = tested on: NCI-H226 lung
NCI/ADR-RES ovarian = tested on: NCI/ADR-RES ovarian

Row | SMILES | TGI (RXF 393 renal) [µM] | TGI (U251 CNS) [µM] | TGI (SK-MEL-5 melanoma) [µM] | TGI (UACC-257 melanoma) [µM] | TGI (SF-268 CNS) [µM] | TGI (HCT-116 colon) [µM] | TGI (SR leukemia) [µM] | TGI (HT29 colon) [µM] | TGI (NCI-H226 lung) [µM] | TGI (NCI/ADR-RES ovarian) [µM] | GI50 (RXF 393 renal) [µM] | GI50 (U251 CNS) [µM] | GI50 (SK-MEL-5 melanoma) [µM] | GI50 (UACC-257 melanoma) [µM] | GI50 (SF-268 CNS) [µM] | GI50 (HCT-116 colon) [µM] | GI50 (HT29 colon) [µM] | GI50 (NCI-H226 lung) [µM] | GI50 (SR leukemia) [µM]
1 | Cc1cccc(/C=N/N=C(\N)NO)n1 | > 100 | > 100 | > 100 | > 100 | > 100 | > 100 | > 100 | > 100 |  |  |  |  |  |  |  |  |  |  | 
2 | CC(C(=O)c1ccc(O)cc1)C1(O)C(=O)Nc2c(Cl)cc(Cl)cc21 (configuration not stated) | 68.8 | > 100 | 31.4 | 33.3 | > 100 | > 100 |  | > 100 | > 100 |  |  |  |  |  |  |  |  |  | 
3 | CCOC(=O)C1=C(Nc2cccc3ccccc23)OCC1=O |  | > 100 | > 100 | > 100 | > 100 | > 100 | > 100 | > 100 | > 100 |  |  |  |  |  |  |  |  |  | 
4 | CC(C)(C)[Si](C)(C)O/N=C\c1cccc(O[Si](C)(C)C(C)(C)C)c1 | 37.4 | 31.4 | 34.2 | 46.2 | 38.5 | 34.1 |  | 31 |  |  |  |  |  |  |  |  |  |  | 
5 | COc1ccc(C2C(C(=O)O)=C(CO)Oc3cc4c(cc32)OCO4)c(OC)c1 (configuration not stated) | > 100 | > 100 | > 100 | > 100 |  | > 100 |  | > 100 |  |  |  |  |  |  |  |  |  |  | 
6 | CNC(=O)NCCCCC(NC(=O)OCc1ccccc1)C(=O)OCc1ccccc1 (configuration not stated) | 33.9 | 54.4 | > 100 | 34.5 |  | > 100 | 61.4 | > 100 | > 100 |  |  |  |  |  |  |  |  |  | 
7 | C=C(C)C1Cc2cc(C(C)=O)ccc2O1 (configuration not stated) |  | > 100 | > 100 | > 100 | > 100 | > 100 |  | > 100 | > 100 | > 100 |  |  |  |  |  |  |  |  | 
8 | [N-]=[N+]=Nc1nnc(CCCCc2nnc(N=[N+]=[N-])o2)o1 | > 100 | > 100 | > 100 | > 100 | > 100 | > 100 |  | > 100 | > 100 |  |  |  |  |  |  |  |  |  | 
9 | O=C(CC(=O)c1cccc2ccccc12)C(=O)Nc1nccs1 | > 100 | > 100 | > 100 | > 100 | > 100 | > 100 | > 100 | > 100 | > 100 |  |  |  |  |  |  |  |  |  | 
10 | CC(C)(C)CC(C)(C)c1cc2c(O)c(c1)Cc1cc(C(C)(C)CC(C)(C)C)cc(c1O)Cc1cc(C(C)(C)CC(C)(C)C)cc(c1O)Cc1cc(C(C)(C)CC(C)(C)C)cc(c1O)Cc1cc(C(C)(C)CC(C)(C)C)cc(c1O)Cc1cc(C(C)(C)CC(C)(C)C)cc(c1O)Cc1cc(C(C)(C)CC(C)(C)C)cc(c1O)Cc1cc(C(C)(C)CC(C)(C)C)cc(c1O)C2 | > 100 | > 100 | > 100 | > 100 | > 100 | > 100 |  | > 100 |  |  |  |  |  |  |  |  |  |  | 
11 | CC(=O)Nc1ccc(S(=O)(=O)N/N=C(\C)CN2C(=O)c3ccccc3C2=O)cc1 |  | > 100 | > 100 | > 100 |  | > 100 | > 100 | > 100 | > 100 |  |  |  |  |  |  |  |  |  | 
12 | C=CCC(O)c1cc(OC)ccc1OC (configuration not stated) | > 100 | > 100 | > 100 | > 100 | > 100 |  |  | > 100 | > 100 |  |  |  |  |  |  |  |  |  | 
13 | CCOC(=O)/C(=C/c1ccccc1)N(CC)CC |  | > 100 | > 100 | > 100 | > 100 | > 100 | > 100 | > 100 | > 100 |  |  |  |  |  |  |  |  |  | 
14 | CCOc1cc2cnc3c4cc(OC)c(OC)cc4ccc3c2cc1OC | > 100 | > 100 | > 100 | > 100 | > 100 | > 100 | > 100 | > 100 | > 100 |  |  |  |  |  |  |  |  |  | 
15 | CC(C)=CC1(C)/C(=N\O)C(C)(CC(C)C)C(=O)N1O (configuration not stated) | > 100 | > 100 | > 100 | > 100 |  | > 100 | > 100 | > 100 | > 100 |  |  |  |  |  |  |  |  |  | 
16 | NC(CCSCCF)C(=O)O (configuration not stated) |  | > 100 |  |  | > 100 | > 100 | > 100 | > 100 | > 100 |  |  |  |  |  |  |  |  |  | 
17 | CC(=O)OCc1ncccc1C(OC(C)=O)OC(C)=O | > 100 | > 100 | > 100 | > 100 | > 100 | > 100 | > 100 | > 100 |  |  |  |  |  |  |  |  |  |  | 
18 | O=C(O)c1ccccc1C(=O)Nc1cc2c(cc1Br)-c1ccccc1C2=O | > 100 | > 100 | > 100 | > 100 | > 100 | > 100 |  | > 100 |  | > 100 |  |  |  |  |  |  |  |  | 

Row | SMILES | TGI (RXF 393 renal) [µM] | TGI (U251 CNS) [µM] | TGI (SK-MEL-5 melanoma) [µM] | TGI (UACC-257 melanoma) [µM] | TGI (SF-268 CNS) [µM] | TGI (HCT-116 colon) [µM] | TGI (SR leukemia) [µM] | TGI (HT29 colon) [µM] | TGI (NCI-H226 lung) [µM] | TGI (NCI/ADR-RES ovarian) [µM] | GI50 (RXF 393 renal) [µM] | GI50 (U251 CNS) [µM] | GI50 (SK-MEL-5 melanoma) [µM] | GI50 (UACC-257 melanoma) [µM] | GI50 (SF-268 CNS) [µM] | GI50 (HCT-116 colon) [µM] | GI50 (HT29 colon) [µM] | GI50 (NCI-H226 lung) [µM] | GI50 (SR leukemia) [µM]
19 | CC1=C(c2ccccc2)CON(c2ccccc2)C1 | 86.2 | 69 | 47.5 | > 100 | > 100 | 79.9 | > 100 | > 100 | > 100 |  |  |  |  |  |  |  |  |  | 
20 | NC(=S)N/N=C1/C(=O)N(c2ccccc2)C(=O)C1C(=O)Nc1ccccc1 (configuration not stated) | > 100 | > 100 | > 100 | > 100 | > 100 | > 100 | > 100 | > 100 | > 100 |  |  |  |  |  |  |  |  |  | 
21 | COc1cc2ccnc(-c3n[nH]c4cc(OC)c(OC)cc34)c2cc1OC |  | > 100 | > 100 | > 100 | > 100 | > 100 | > 100 | > 100 | > 100 |  |  |  |  |  |  |  |  |  | 
22 | COC(=O)CCC(=O)Nc1cc(C)ccc1C | > 100 | > 100 | > 100 | > 100 |  | > 100 |  | > 100 | > 100 |  |  |  |  |  |  |  |  |  | 
23 | Cc1c(-c2cc(-c3ccccc3)n[nH]c2=O)c2ccccc2n1C | > 100 | > 100 | > 100 | > 100 | > 100 | > 100 | > 100 | > 100 | > 100 |  |  |  |  |  |  |  |  |  | 
24 | C=CC(=O)OCCCS(=O)(=O)[O-].C=CC(=O)OCCCS(=O)(=O)[O-].NC1CCCCC1N.[Pt+4] | > 25 | > 25 | > 25 | > 25 | > 25 | > 25 |  | > 25 | > 25 |  | > 25 | > 25 | > 25 | > 25 | > 25 | > 25 | > 25 | > 25 | 
25 | COc1cc2c(cc1OC)C(Cc1cc(Br)c(OC)c(OC)c1)=[N+](C)CC2 | > 100 | > 100 | > 100 | > 100 | > 100 | > 100 |  | > 100 | > 100 |  |  |  |  |  |  |  |  |  | 
26 | CC1=CC[C@@H]2C(=O)C=CC=C[C@H]12.[C-]#[O+].[C-]#[O+].[C-]#[O+].[Fe] | > 100 | > 100 | > 100 | > 100 |  | > 100 | > 100 | > 100 | > 100 |  | > 100 | > 100 | > 100 | > 100 |  | > 100 | > 100 | > 100 | > 100
27 | COc1ccccc1NC(=O)C1=C(C)NC(C)=C(C(=O)Nc2ccccc2OC)C1c1ccc(C2C(C(=O)Nc3ccccc3OC)=C(C)NC(C)=C2C(=O)Nc2ccccc2OC)cc1 | 5.06 | 7.01 | 8.14 | 6.17 | 11.6 | 2.7 | 9.93 | 4.56 | 12.1 |  |  |  |  |  |  |  |  |  | 
28 | Nc1ncnc2c1N=CN(Oc1ccccc1)N2 | > 100 | > 100 | > 100 | > 100 |  | > 100 | > 100 | > 100 | > 100 |  |  |  |  |  |  |  |  |  | 
29 | CN(C)C(=S)/N=C(\N)N(C)C | > 100 | > 100 | > 100 | > 100 | > 100 | > 100 | > 100 | > 100 | > 100 |  |  |  |  |  |  |  |  |  | 
30 | CC/C(=N/O)C(C)C(=O)CCC(=O)Nc1ccc(Cl)cc1 (configuration not stated) | > 100 | > 100 | > 100 | > 100 | > 100 | > 100 |  | > 100 | > 100 |  |  |  |  |  |  |  |  |  | 
31 | OCC(O)C(OC1OC(CO)C(O)C(O)C1O)c1nn(-c2ccc(Cl)cc2)c2nc3cc(Cl)c(Cl)cc3nc12 (configuration not stated) | > 100 | > 100 |  | > 100 | > 100 | > 100 | > 100 | > 100 |  |  |  |  |  |  |  |  |  |  | 
32 | O=C(/C=C/c1ccco1)N1CCN(Cc2ccccc2)CC1 |  | > 100 | > 100 | > 100 | > 100 | > 100 | > 100 | > 100 |  |  |  |  |  |  |  |  |  |  | 
33 | COC(=O)c1ccc(N/C=C(/C#N)c2ccsc2)cc1 | 23.9 | 20.3 |  | > 100 | 37 | 21.8 | > 100 | 25.3 | 39 |  |  |  |  |  |  |  |  |  | 
34 | CCCCCCCCCCCc1cc(=O)c2c(O)cccc2o1 | > 100 | > 100 | > 100 | > 100 | > 100 | > 100 | > 100 | > 100 | > 100 |  |  |  |  |  |  |  |  |  | 
35 | CC(C)CCCC(C)[C@H]1CCC2C3CC=C4C[C@@H](OC(=O)CC(CC(=O)[O-])C(=O)[O-])CC[C@]4(C)C3CC[C@@]21C.N.N.[Pt+4] (some centres not stated) | > 100 | > 100 | > 100 | > 100 |  | > 100 |  | > 100 |  |  | 47.1 | > 100 | > 100 | > 100 |  | > 100 | > 100 |  | 
